The subject of test [1] is live leukemic cells of fresh bone marrow samples from AML patients. Conditions: read-out: mean IC50, proliferation of primary leukemic cells; 96 hours, n = 38 patient samples.
The test system of test [2] is MV-4-11 and HL-60 cells. Kind of test: Flow cytometry, surface level of CD11b (differentiation). It counts as cell-based, human. The note with it: single agent, 72 hours. How it is done: (§1) All compounds and/or solvent DMSO were added concurrently at the indicated doses. Flow cytometry was performed to measure surface level of CD11b, cell cycle distribution, and induction of apoptosis. CD11b and apoptosis were analyzed on a FC500 flow cytometer ([…]) and cell cycle profiled on an Attune NxT (Life Technologies).
The frequency of CD11b positive cells out of total viable cells identified by forward and side scatter profile was quantified.
Background: A flow cytometer gives signals particle by particle.

Test [3] has as its system five human AML cell lines (MV-4-11, Kasumi-1, HL-60, MOLM-13, NB-4). Kind of test: Cell viability assay, summary over five human AML cell lines. The note with it: 72 hours.
Experimental: (§3) MV-4-11, Kasumi-1, and HL-60 AML cell lines were all obtained from ATCC. MOLM-13 and NB-4 cell lines were obtained from DSMZ. […] The identity of each cell line was validated and documented by the suppliers. All experiments were performed with cells maintained at low passage numbers.
(§4) Compounds and/or solvent dimethyl sulfoxide (DMSO) were added at the same time using an HP D300 digital dispenser (Hewlett Packard) in triplicate or quadruplicate and incubated for 72 hours at 37°C. Viability was measured by adding 25 μL CellTiter-Glo (Promega), incubating for 10 minutes, and measuring luminescence on a SpectraMax (Molecular Devices). […] CI < 1 indicates synergism, CI = 1 indicates additivity, and CI > 1 indicates antagonism.
The test system of another test is MV-4-11 cells. Briefly: Cell viability assay (CellTiter-Glo), single agent and combination. Conditions: read-out: IC50 cell viability MV-4-11; 72 hours. Background: In ATP-based viability assays light output follows the ATP content of the culture.
For test [4], the system named is MV-4-11 and HL-60 cells. Briefly: Flow cytometry, apoptosis (Annexin V). It counts as cell-based, human. Conditions: single agent, 96 hours. How it is done: as §1
Annexin V-positive populations were quantified.

The target in another test is T1, HDAC2 (Homo sapiens, UniProt Q92769).
T1 construct: purchased BPS Biosciences
T1 sequence (Q92769 whole entry): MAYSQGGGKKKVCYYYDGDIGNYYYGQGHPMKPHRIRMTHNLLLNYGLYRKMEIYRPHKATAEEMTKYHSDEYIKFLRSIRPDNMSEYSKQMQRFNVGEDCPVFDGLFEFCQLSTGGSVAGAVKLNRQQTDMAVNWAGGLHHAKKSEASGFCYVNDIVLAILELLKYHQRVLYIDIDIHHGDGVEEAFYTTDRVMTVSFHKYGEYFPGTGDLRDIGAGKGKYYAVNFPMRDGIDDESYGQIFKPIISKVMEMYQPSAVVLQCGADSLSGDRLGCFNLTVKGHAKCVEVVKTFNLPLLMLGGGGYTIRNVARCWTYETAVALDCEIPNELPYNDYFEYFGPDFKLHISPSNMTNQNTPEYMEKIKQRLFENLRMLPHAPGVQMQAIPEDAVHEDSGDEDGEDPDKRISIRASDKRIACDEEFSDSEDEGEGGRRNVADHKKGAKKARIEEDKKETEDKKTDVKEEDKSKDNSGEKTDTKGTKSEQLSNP
Briefly: HDAC enzyme assay, in vitro biochemical. The method, then:
(§2) In vitro biochemical assays were performed as described previously. Specifically, compounds were dissolved and diluted in assay buffer (50 mM HEPES, pH 7.4, 100 mM KCl, 0.001% Tween-20, 0.05% BSA, and 20 μM Tris (2-carboxyethyl) phosphine) to 6-fold the final concentration. […] The amount of substrate (acetyl-lysine tripeptide) used for each enzyme was equal to the Michaelis constant (Km), as determined by a titration curve. Substrate was diluted in assay buffer to 6-fold of the final concentration with 0.3 μM sequencing grade trypsin (Sigma-Aldrich). The substrate/trypsin mix was added to the enzyme/compound mix and the plate was shaken for 5 seconds and then placed into a SpectraMax M5 microtiter (Molecular Devices) plate reader. The enzymatic reaction was monitored over 30 minutes for release of […] after deacetylation of the lysine side chain in the peptide substrate, and the linear rate of the reaction was calculated.

In the next test the target is T2, HDAC1 (Homo sapiens, UniProt Q13547).
T2 construct: purchased BPS Biosciences
T2 sequence (Q13547 whole entry): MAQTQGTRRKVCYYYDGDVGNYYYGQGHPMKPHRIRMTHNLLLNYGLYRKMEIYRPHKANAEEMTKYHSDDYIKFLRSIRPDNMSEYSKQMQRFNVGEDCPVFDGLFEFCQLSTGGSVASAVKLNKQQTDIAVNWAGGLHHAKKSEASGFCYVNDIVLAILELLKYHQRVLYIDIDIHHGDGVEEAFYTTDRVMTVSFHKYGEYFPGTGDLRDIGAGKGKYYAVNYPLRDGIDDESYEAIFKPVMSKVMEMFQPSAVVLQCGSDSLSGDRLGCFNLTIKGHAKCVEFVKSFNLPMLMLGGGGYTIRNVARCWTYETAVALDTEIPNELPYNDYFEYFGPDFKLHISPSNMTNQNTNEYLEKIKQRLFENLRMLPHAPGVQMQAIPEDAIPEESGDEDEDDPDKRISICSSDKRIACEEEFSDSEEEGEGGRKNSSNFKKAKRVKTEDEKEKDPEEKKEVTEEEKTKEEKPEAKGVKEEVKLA
Briefly: HDAC enzyme assay, in vitro biochemical. How it is done: as §2

The next test has as its target T3, HDAC3 (Homo sapiens, UniProt O15379).
T3 construct: purchased BPS Biosciences
Briefly: HDAC enzyme assay, in vitro biochemical. Conditions: pre-incubated 24 hours at 4°C; n = 3; read-out: IC50 against HDAC3. How it is done: as §2

For another test, the system named is Kasumi-1 cells. Kind of test: Cell viability assay (CellTiter-Glo). The note with it: read-out: IC50 cell viability Kasumi-1; 72 hours.
Test [5] concerns MV-4-11, Kasumi-1 and HL-60 cell lines. Kind of test: Histone acetylation by immunoblotting. The note with it: 24 hours, increasing doses. It counts as cell-based, human. From the text: The EpiQuick Total Histone Extraction kit (Epigentek) was used to isolate histones. Histone lysates were size separated on Bolt 10% Bis-Tris gradient gels (Life Technologies), transferred to polyvinylidene difluoride membranes, blocked in 5% BSA, and detected using standard western blotting techniques.
In general terms: Immunoblotting shows a protein as a band on a membrane.

Test [6] deals with MV-4-11 and HL-60 cells. Kind of test: Flow cytometry, cell cycle (EdU, S phase). The format is cell-based, human. Conditions: single agent, 72 hours. How it is done:
as §1
EdU labeled cells were then mixed with FxCycle Far Red Stain (Life Technologies) and 100 μg RNase A cocktail (Life technologies) for 30 minutes before flow cytometry analysis. Edu positive populations representing S phase cells were quantified.

The test system of a further test is HL-60 cells. Kind of test: Cell viability assay (CellTiter-Glo). Conditions: read-out: IC50 cell viability HL-60; 72 hours.
For the next test, the system named is MOLM-13 cells. Briefly: Cell viability assay (CellTiter-Glo), single agent and combination. Conditions: read-out: IC50 cell viability MOLM-13; 72 hours.
The next test relates to NB-4 cells. Kind of test: Cell viability assay (CellTiter-Glo). The note with it: read-out: IC50 cell viability NB-4; 72 hours.
In test [7] the test system is MV-4-11 and HL-60 cells. Briefly: Quantitative real time PCR (qPCR) of CDKN1A, CDKN1C, GATA2, HES1. It counts as cell-based, human. The note with it: MV-4-11 and HL-60, 48 hours. How it is done:
RNA isolations were performed on a Qiacube (Qiagen) using the RNeasy Micro Kit (Qiagen) according to manufacturer’s protocol. RNA was converted to cDNA using the High Capacity RNA-to-cDNA Kit (Life Technologies) and qPCR performed using the Taqman Gene Expression Max Mix according to manufacturer’s protocol (Applied Bioscience). The following ThermoFisher taqman probes were used: GATA2 (Hs01060665_g1), GAPDH (Hs0275899_g1), ACTB (Hs00231119_m1), CDKN1A (Hs00355782_m1), CDKN1C (Hs00175938_m1), HES1 (Hs00172878_m1).

Structures are written as SMILES. Like-named read-outs stand apart in the source and are kept apart here.

T3 sequence (O15379 whole entry): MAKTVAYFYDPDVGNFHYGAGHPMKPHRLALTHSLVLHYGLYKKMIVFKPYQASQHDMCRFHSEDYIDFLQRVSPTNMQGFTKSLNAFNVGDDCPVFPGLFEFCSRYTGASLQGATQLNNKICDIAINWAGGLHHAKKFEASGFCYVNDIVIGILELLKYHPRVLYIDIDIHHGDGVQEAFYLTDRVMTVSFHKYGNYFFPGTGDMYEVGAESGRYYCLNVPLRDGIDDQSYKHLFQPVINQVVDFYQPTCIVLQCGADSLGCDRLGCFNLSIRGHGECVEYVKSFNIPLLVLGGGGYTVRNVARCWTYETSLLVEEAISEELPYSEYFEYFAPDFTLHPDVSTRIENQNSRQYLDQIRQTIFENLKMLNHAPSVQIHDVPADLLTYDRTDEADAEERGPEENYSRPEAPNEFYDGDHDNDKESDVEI
T3 sequence (Q9Y618 395-489 partner limits assumed): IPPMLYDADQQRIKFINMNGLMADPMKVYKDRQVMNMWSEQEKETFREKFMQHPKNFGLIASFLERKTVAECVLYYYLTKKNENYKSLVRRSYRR
Experimental for Kasumi-1 cells: as §3, §4
Experimental for MOLM-13 cells: as §3, §4
Experimental for MV-4-11 cells: as §3, §4
Experimental for NB-4 cells: as §3
Compounds and/or solvent dimethyl sulfoxide (DMSO) were added at the same time using an HP D300 digital dispenser (Hewlett Packard) in triplicate or quadruplicate and incubated for 72 hours at 37°C. Viability was measured by adding 25 μL CellTiter-Glo (Promega), incubating for 10 minutes, and measuring luminescence on a SpectraMax (Molecular Devices).

Take `Nc1ccc(-c2cccs2)cc1NC(=O)c1ccc2nc(N3CCNCC3)ccc2c1` [ACY-957]: the IC50 in test [1] was 1100 nM; in test [3] (read-out: IC50 values cell viability, range, five human AML cell lines, both compounds), 800 to 3300 nM; in test [3] (read-out: average IC50 value, viability of AML cells, average of five AML cell lines), 1500 nM; in the test on MV-4-11 cells, 800 nM; on HDAC2 (pre-incubated 24 hours at 4°C, n = 3, read-out: IC50 against HDAC2) it was 26 nM; on HDAC1 (pre-incubated 24 hours at 4°C, n = 3, read-out: IC50 against HDAC1), 7.2 nM. The IC50 on HDAC3 was determined as 1160 nM; with Kasumi-1 cells, 1600 nM; in the test with HL-60 cells, 2200 nM; with MOLM-13 cells, 1600 nM; with NB-4 cells it was 1600 nM. Moreover, in the test with MV-4-11 and HL-60 cells [2], the “differentiation, surface expression of CD11b” value is recorded as “dose-dependent induction of differentiation”. Moreover, the “apoptosis, staining for annexin V” value in the test on MV-4-11 and HL-60 cells [4] is reported as “increased staining for annexin V”. Moreover, the “selectivity for HDAC2 over HDAC3” value at HDAC2 was “approximately 50 fold”. The “selectivity for HDAC1 over HDAC3” value at HDAC1 is reported as “more than 150 fold”. Besides, in test [5], the “acetylation on histone H2B lysine 5 (H2BK5ac) and histone H3 lysine 56 (H3K56ac)” value is “dose-dependent accumulation”. For the same molecule, in the test on MV-4-11 and HL-60 cells [6], the “cells in S phase” value is given as “dose-dependent reduction of cells in S phase”. The “expression of CDKN1A, CDKN1C, GATA2 and HES1 (qPCR)” value in the test on MV-4-11 and HL-60 cells [7] is recorded as “up-regulated”.

(Values after publication PMC5218480 (PLoS ONE, 2017).)
